From patent publication US7842294B2, “Proteins belonging to the Bcl-2 family and fragments thereof, and their use in cancer patients” (Survac APS, priority 2003, dated 2010)
Where “and” joins values, the source holds several entries; their conditions need not be identical. Equal entries are not always repeated. Where two headings read alike, the source gives them in different places. Ends that are not written are not given here.

Experiments:
[1] = test system: peptide epitope-specific interferon-γ releasing effector cells in PBL; test: IFN-γ ELISPOT on PBL stimulated once in vitro with peptide; type: cell-based, human; conditions: for CTL response in cancer patients of different origin (in words): PBL from HLA-matched cancer patients; for patients with spontaneous CTL response / patients with spontaneous CTL response (%): PBL from 15 HLA-A2 positive breast cancer patients; for healthy individuals with CTL response: 12 healthy HLA-A2 positive individuals; for breast cancer patients hosting an immune response: eighteen HLA-A2+ breast cancer patients; for breast cancer patients hosting an immune response / melanoma patients hosting an immune response: responder >25 spots per 10^5 cells; for pancreatic cancer patients with CTL response: two HLA-A2 positive pancreatic cancer patients; for pancreatic cancer patients with response: two HLA-A3+ pancreatic cancer patients; for melanoma patients hosting an immune response: six HLA-A2+ melanoma patients
Protocol: To extend the sensitivity of the ELISPOT assay, PBL were stimulated once in vitro prior to analysis. At day 0, PBL or crushed lymph nodes were thawed and plated in 2 ml/well at a concentration of 2×10^6 cells in 24-well plates (Nunc, Denmark) in X-vivo medium (Bio Whittaker, Walkersville, Md.), 5% heat-inactivated human serum, and 2 mM of L-glutamine in the presence of 10 μM of peptide. Two days later 20 IU/ml recombinant interleukin-2 (IL-2) (Chiron, Ratingen, Germany) was added to the cultures. The cultured cells were tested for reactivity in the ELISPOT on day 12.
The ELISPOT assay was used to quantify peptide epitope-specific interferon-γ releasing effector cells as described previously (4). Briefly, nitrocellulose bottomed 96-well plates (MultiScreen MAIP N45, Millipore, Hedehusene, Denmark) were coated with anti-IFN-γ antibody (1-D1K, Mabtech, Nacka, Sweden). The wells were washed, blocked by X-vivo medium, and cells added in duplicates at different cell concentrations. Peptides were then added to each well and the plates were incubated overnight. The following day, media was discarded and the wells were washed prior to addition of biotinylated secondary antibody (7-B6-1-Biotin, Mabtech). The plates were incubated for 2 hours, washed and Avidin-enzyme conjugate (AP-Avidin, Calbiochem, Life Technologies) was added to each well. Plates were incubated at RT for 1 hour and the enzyme substrate NBT/BCIP (Gibco, Life Technologies) was added to each well and incubated at RT for 5-10 min. The reaction was terminated by washing with tap-water upon the emergency of dark purple spots. The spots were counted using the ImmunoSpot® Series 2.0 Analyzer (CTL Analyzers, LLC, Cleveland, US) and the peptide specific CTL frequency could be calculated from the numbers of spot-forming cells. All assays were performed in triplicates for each peptide antigen.

HLA-A2 = target: T1, HLA-A2 (Homo sapiens, UniProt P04439, D140Y/D185E/D98H/E176V/E277Q/G131W/G231S/I119V/I121R/I166T/I218V/L300P/L318F/N151K/N90K/P208A/P217A/Q86G/Q94H/R138H/R169H/T345S); test: Assembly assay for peptide binding to MHC class I molecules (stabilisation of HLA from TAP-deficient T2 cells); conditions: recovery of HLA-A2 measured at 50, 5, 0.5, 0.05 μM peptide
T1 construct: empty HLA molecules released upon cell lysis, from the TAP-deficient cell line T2; endogenous in cells; host or cells: T2 (TAP-deficient cell line), metabolically labelled with [35S]-methionine and lysed
Protocol: This assembly assay is carried out as described previously (2), and it is based on stabilisation of the HLA molecule after loading of peptide to the peptide transporter deficient cell line T2. Subsequently, correctly folded stable HLA heavy chains are immunoprecipitated using conformation dependent antibodies and the peptide binding is quantitated.
The binding affinity of the synthetic peptides (Invitrogen, Carlsbad, Calif., USA) to HLA-A2 molecules, metabolically labelled with [^35S]-methionine, was measured in the assembly assay, as described previously. The assay is based on peptide-mediated stabilisation of empty HLA molecules released upon cell lysis, from the TAP-deficient cell line T2. Stably folded HLA-molecules were immune-precipitated using the HLA class I-specific, conformation-dependent mAb W6/32, and separated by isoelectric focusing (IEF) gel electrophoresis. MHC heavy chain bands were quantified using the ImageGauge Phosphorimager program (FUJI photo film Co., Carrollton, Tex., USA). The intensity of the band is directly related to the amount of peptide-bound class I MHC complex recovered during the assay. Subsequently, the extent of stabilisation of HLA-A2 is directly related to the binding affinity of the added peptide. The recovery of HLA-A2 was measured in the presence of 50, 5, 0.5, 0.05 μM of the relevant peptide. The C50 value was calculated for each peptide as the peptide concentration sufficient for half maximal stabilisation.
The amino acid sequence of the Bcl-2 protein was screened for the most probable HLA-A2 nona- and decamer peptide epitopes, using the main HLA-A2 specific anchor residues (2). […] The assembly assay is based on stabilisation of the class I molecule after loading of different concentrations of peptide to the TAP-deficient cell line T2. Subsequently correctly folded stable MHC heavy chains are immunoprecipitated using conformation-dependent antibodies.

[2] = test system: antigen-specific CTL in PBL; test: Granzyme B (GrB) ELISPOT; type: cell-based, human
Protocol: The Granzyme B (GrB) ELISPOT assay was used for measuring antigen-specific CTL cytotoxicity as described. Briefly, nitrocellulose bottomed 96-well plates (MultiScreen MAIP N45, Millipore) were coated with GrB Capture Antibody (BD Biosciences, Brondby, Denmark). The wells were washed and blocked by X-vivo medium with 5% human serum. The cells were added at different cell concentrations. T2 cells and peptides were then added to each well and the plates were incubated 4 hours, medium was discarded and the wells were washed prior to addition of GrB Detection Antibody (BD Biosciences). The plates were incubated for 2 hours, washed and Avidin horseradish peroxidase (BD Biosciences) was added to each well. Plates were incubated at RT for 1 hour AEC Substrate Reagent (BD Biosciences) was added to each well and incubated at RT for 5-10 min. The reaction was terminated by washing with tap-water upon the emergency of red spots. The spots were counted and the peptide specific CTL frequency was calculated like for the INF-γ ELISPOT. All assays were performed in duplicate or triplicates for each peptide antigen.

CD8+ T cells from PBL = test: FACS analysis with Pro5 MHC pentamer staining; type: cell-based, human; conditions: breast cancer patient no. 36, PBL stimulated once in vitro, HLA-A2/Bcl-XL173-182 pentamer
[3] = four HLA-A1+ breast cancer patients
[4] = seven HLA-A1+ melanoma patients
[5] = six healthy HLA-A1+ individuals
[6] = read-out: C50 (concentration of the peptide required for half maximal binding to HLA-A2)
[7] = C50 (concentration of the peptide required for half maximal binding to HLA-A2)
[8] = six HLA-A3+ breast cancer patients, 3×10^5 cells per well, Mcl-1 study

“QSLEIISRY (Peptide derived from Mcl-1) [Mcl-1177-185]” was tested, and the “CTL response in cancer patients of different origin (in words)” value [1] was “CTL responses were detected”, the “breast cancer patients with response” value [1, 3] was “three out of four” and the “melanoma patients with response” value [1, 4] was “one out of seven”. The “healthy donors with response” value [1, 5] was “no responses were detected”.
ALVGACITL [Bcl224] gave an EC50 (HLA-A2; [6]) of 700 nM.
Work on AAAGPALSPV [bcl80] yielded an EC50 (HLA-A2; [7]) of 36000 nM.
For YLNRHLHTWI [bcl180], the “patients with spontaneous CTL response” value [1] was “four”, the “patients with spontaneous CTL response (%)” value (shortened to “patients … (%)”) [1] was “≈ 25%” and the EC50 (HLA-A2; [6]) was 20000 nM and 15000 nM.
For ELYGPSMRPL [bcl200], the “C50 (concentration of the peptide required for half maximal binding to HLA-A2)” value (HLA-A2) was “did not bind”.
In the case of “PAEEEEDDLY (Peptide derived from Mcl-1) [Mcl-1166-175]”, the “CTL response in cancer patients of different origin (in words)” value [1] is reported as “CTL responses were detected”, the “breast cancer patients with response” value [1, 3] is reported as “one of these” and the “melanoma patients with response” value [1, 4] is reported as “another of these”. The “healthy donors with response” value [1, 5] was “no responses were detected”.
LLSLALVGA [bcl220] gave an EC50 (HLA-A2; [6]) of 1000 nM.
For SLKTLLSLAL [bcl216, SLKTLLSLAL], the “C50 (concentration of the peptide required for half maximal binding to HLA-A2)” value (HLA-A2) was “did not bind”.
ALSPVPPVV [Bcl85] gave an EC50 (HLA-A2; [6]) of 1000 nM.
With “VLVSRIAAWM (Peptide derived from Bcl-XL) [Bcl-XL161-170]” the “healthy individuals with CTL response” value [1] was “no responses were detected”, the “CTL response in cancer patients of different origin (in words)” value [1] was “strong and frequent CTL responses” and the “breast cancer patients hosting an immune response” value [1] was “six”. The “pancreatic cancer patients with CTL response” value [1] was “one”.
In the case of “TAYQSFEQV (Peptide derived from Bcl-XL) [Bcl-XL118-126]”, the “CTL response in cancer patients of different origin (in words)” value [1] is reported as “weak spontaneous CTL response”.
With “RTKRDWLVK (Peptide derived from Mcl-1) [Mcl-1300-308]” the “healthy donors with response” value ([1]; 10 healthy HLA-A3+ individuals) was “no responses were detected”, the “CTL response in cancer patients of different origin (in words)” value [1] was “strong and frequent CTL responses” and the “breast cancer patients with response” value [1, 8] was “three”. For the same sequence, the “pancreatic cancer patients with response” value ([1]; Mcl-1 study) was “one of these”.
In the case of SLALVGACI [bcl222], the EC50 (HLA-A2; [6]) is reported as 1000 nM.
NIALWMTEYL [bcl172] was tested, and the “patients with spontaneous CTL response” value [1] was “eight”, the “patients … (%)” value [1] was 50% and the EC50 (HLA-A2; [6]) was 2000 nM.
For WLSLKTLLSL [bcl214], the “GrB release in controls” value ([2]; breast cancer patient no. 16 and healthy control h1) was “no GrB release was detected”, the “patients with spontaneous CTL response” value [1] was “eleven” and the “patients … (%)” value [1] was “≈ 75%”. The “CLL patients with Bcl-2 response” value ([1]; ten HLA-A2 positive CLL patients, reactivity against bcl208 and bcl214, not broken down by peptide) was “five”, the “AML patients with Bcl-2 response” value ([1]; three AML patients, reactivity against bcl208 and bcl214, not broken down by peptide) was “two” and the “pancreatic cancer patients with CTL response” value [1] was “both”. The EC50 (HLA-A2; [6]) was 3000 nM.
With “RLLFFAPTR (Peptide derived from Mcl-1) [Mcl-195-103]” the “healthy donors with response” value ([1]; 10 healthy HLA-A3+ individuals) was “no responses were detected”, the “CTL response in cancer patients of different origin (in words)” value [1] was “strong and frequent CTL responses” and the “breast cancer patients with response” value [1, 8] was “five”. For the same sequence, the “B-CLL patients with response” value ([1]; six HLA-A3+ patients suffering from B-CLL) was “two” and the “pancreatic cancer patients with response” value ([1]; Mcl-1 study) was “two out of two”.
In the case of KTLLSLALV [bcl218], the EC50 (HLA-A2; [7]) is reported as 2000 nM.
With “RIAAWMATY (Peptide derived from Bcl-XL) [Bcl-XL165-173]” the “multiple myeloma patients with response” value ([1]; HLA-A3+ multiple myeloma patients) was “one out of four”, the “CTL response in cancer patients of different origin (in words)” value [1] was “strong and frequent CTL responses” and the “breast cancer patients with response” value ([1]; five HLA-A3+ breast cancer patients, 10^5 cells per well) was “four out of five”. The “melanoma patients with response” value ([1]; four HLA-A3+ melanoma patients) was “four out of four”, the “healthy individuals with response” value ([1]; seven HLA-A3+ healthy individuals) was “not able to detect a response” and the “pancreatic cancer patients with response” value ([1]; Bcl-XL study) was “two out of two”.
“RLKRDWLVK (Modified Mcl-1 peptide) [Mcl-1300-308L2]” was tested, and the “breast cancer patients with spontaneous immune response” value ([1]; number examined not given, data not shown) was “two”.
With “YLNDHLEPWI (Peptide derived from Bcl-XL) [Bcl-XL173-182]” the “pentamer positive T cells among CD8+ T cells” value (CD8+ T cells from PBL) was 0.24%, the “frequency of peptide specific CTL (GrB ELISPOT)” value ([2]; Bcl-XL reactive breast cancer patients no. 35 and 36) was 50-100 peptide specific CTL per 3×10^5 cells and the “GrB release in control patient” value ([2]; breast cancer patient no. 17) was “no GrB release was detected”. For the same sequence, the “healthy individuals with CTL response” value [1] was “no responses were detected”, the “CTL response in cancer patients of different origin (in words)” value [1] was “strong and frequent CTL responses” and the “breast cancer patients hosting an immune response” value [1] was “nine out of eighteen”. For the same sequence, the “peptide specific, IFNγ secreting CD8+ T cells” value ([1]; same CD8+ culture of breast cancer patient no. 36) was “around 1.4%” and the “melanoma patients hosting an immune response” value [1] was “two out of six”.
With “RIAAWMATYL (Peptide derived from Bcl-XL) [Bcl-XL165-174]” the “healthy individuals with CTL response” value [1] was “no responses were detected”, the “CTL response in cancer patients of different origin (in words)” value [1] was “strong and frequent CTL responses” and the “breast cancer patients hosting an immune response” value [1] was “four”. For the same sequence, the “melanoma patients hosting an immune response” value [1] was “two” and the “pancreatic cancer patients with CTL response” value [1] was “one”.
FTARGRFATV [bcl124] was tested, and the EC50 (HLA-A2; [6]) was 1000 nM.
For “WMATYLNDHL (Peptide derived from Bcl-XL) [Bcl-XL169-178]”, the “CTL response in cancer patients of different origin (in words)” value [1] was “weak spontaneous CTL response”.
“VAFFSFGGAL (Peptide derived from Bcl-XL) [Bcl-XL141-150]” was tested, and the “healthy individuals with CTL response” value [1] was “no responses were detected”, the “CTL response in cancer patients of different origin (in words)” value [1] was “strong and frequent CTL responses” and the “breast cancer patients hosting an immune response” value [1] was “Four out of eighteen”. The “melanoma patients hosting an immune response” value [1] was “not able to detect a response” and the “pancreatic cancer patients with CTL response” value [1] was “one of the two”.
